Laboratory results: paper PMC4547777 (Angewandte Chemie (International ed. in English), 2015)

Biological target: Androgen Receptor (AR) (Homo sapiens, UniProt P10275)
Assay: competition radioligand binding with [3H]-R1881

Chain of Androgen Receptor (AR) (P10275 whole entry): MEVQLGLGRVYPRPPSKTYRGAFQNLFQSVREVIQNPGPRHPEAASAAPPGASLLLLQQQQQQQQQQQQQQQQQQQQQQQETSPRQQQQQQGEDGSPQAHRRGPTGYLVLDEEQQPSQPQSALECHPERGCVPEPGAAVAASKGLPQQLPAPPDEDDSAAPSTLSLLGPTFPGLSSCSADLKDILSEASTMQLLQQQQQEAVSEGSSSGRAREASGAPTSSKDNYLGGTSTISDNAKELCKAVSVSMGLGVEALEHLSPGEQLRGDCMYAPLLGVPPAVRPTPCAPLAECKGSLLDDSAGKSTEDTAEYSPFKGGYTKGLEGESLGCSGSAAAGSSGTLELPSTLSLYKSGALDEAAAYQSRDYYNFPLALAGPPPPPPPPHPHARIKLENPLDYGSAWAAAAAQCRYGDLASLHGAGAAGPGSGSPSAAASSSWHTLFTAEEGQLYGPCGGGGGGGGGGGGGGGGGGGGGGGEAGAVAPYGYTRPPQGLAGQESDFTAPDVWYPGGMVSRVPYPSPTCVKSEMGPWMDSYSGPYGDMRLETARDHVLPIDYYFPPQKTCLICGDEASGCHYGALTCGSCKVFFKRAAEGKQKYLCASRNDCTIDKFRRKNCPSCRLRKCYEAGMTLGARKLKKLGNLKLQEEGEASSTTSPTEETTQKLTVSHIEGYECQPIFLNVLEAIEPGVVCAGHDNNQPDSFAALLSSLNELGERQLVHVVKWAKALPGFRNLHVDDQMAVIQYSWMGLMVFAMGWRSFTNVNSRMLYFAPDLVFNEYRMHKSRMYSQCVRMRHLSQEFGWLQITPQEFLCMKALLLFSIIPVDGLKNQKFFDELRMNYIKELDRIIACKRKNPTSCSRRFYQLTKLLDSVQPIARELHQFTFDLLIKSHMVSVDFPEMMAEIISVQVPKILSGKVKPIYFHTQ

## CC1(C)C(=O)N(c2ccc(C#N)c(C(F)(F)F)c2)C(=S)N1CCCCO [RU59063]
  competition radioligand binding with [3H]-R1881 (parent ligand): competition radioligand binding assay using [^3H]-R1881 showed that appending of the adamantyl group to RU59063 reduced affinity
